Measured values as given in patent US20240358705A1, “COMPOSITIONS AND METHODS FOR TREATMENT OF CANCER” (Board of Supervisors of Louisiana State University and …, priority 2021, published 2024).

Assays:
B16-OVA = assay: In vivo therapeutic vaccination and tumor analysis; design: species or system mouse; conditions: 30 mg/kg orally, with SIINFEKL in IFA vaccination and boosts
Protocol: C57BL/6N mice were injected with 3×10^5 B16-OVA subcutaneously in the right flank. Five days after injection, mice were administered 200 μg cyclophosphamide dissolved in PBS by intraperitoneal injection to induce minor lymphodepletion. 48 hours after lymphodepletion, mice were intravenously adoptively transferred 2.5×10^6 labeled CD8 OT-I T cells. […]. Tumor growth rates were determined by tumor volume measurement beginning on day four and continuing three times per week for the study duration. Tumor volumes were determined by the ellipsoid formula: [(Length×Width^2)/2].

CD8 T cells = assay: Single-cell RNA sequencing; type: cell-based, mouse; conditions: 10 μM, 16 hours
Protocol: Treated CD8 T cells were prepared following the in vitro T cell activation method and incubated for 16 hours at 37° C., […]. Treated T cells were mixed with treated BM-MDSCs at a […] (T cell): 30% (BM-MDSC) ratio moments before analysis. 10,000 cells with greater than 90% viability were used in the analysis at a concentration of 1,000 cells/μl. Barcoded cDNA libraries were prepared using a chromium next GEM single-cell 3′ reagent kit v3.1 (10× Genomics #1000127) following the manufacturer's instructions. […] (Agilent, Santa Clara, CA) DNA was subsequently quantified by fluorometry using a Qubit dsDNA high sensitivity assay kit (Invitrogen #Q32854). DNA libraries were pooled in equimolar ratios and sequenced using an Illumina NextSeq 500 (Illumina, San Diego, CA) following 10× Genomics' instructions. […] Doublets were subsequently removed using DoubletFinder (https://github.com/chris-mcginnis-ucsf/DoubletFinder). An unsupervised clustering and plotting using UMAPs was completed on the remaining cells. CD8 T cells were identified by first conducting CD3 followed by CD8 refinement and reclustering. To characterize the CD8 subsets, the top 50 differentially expressed genes between each subcluster were compared against publicly available datasets, and known genes associated with activation, exhaustion, and memory T cell states. To determine changes in metabolism and cytotoxicity, a curated list of genes associated with glucose, fatty acid, lipid metabolism, and cytotoxicity were generated. Average gene expression by treatment group was determined for each gene and visualized by heatmap.

In the case of `O=c1nc(OC[C@@H]2COCCO2)cc2n1CCc1cc(C#CC3CC3)ccc1-2` [GLPG1205, 9-Cyclopropylethynyl-2-((S)-1-[1,4]dioxan-2-ylmethoxy)-6,7-dihydropyrimido[6,1-a]isoquinolin-4-one], the “anti-tumor response (tumor growth rates) compared to the MC control group” value (B16-OVA) is reported as “significantly stronger anti-tumor response”, the “average expression of genes of glucose, fatty acid, lipid metabolism and cytotoxicity (heatmap)” value (CD8 T cells) is reported as “dramatic increase in gene expression” and the “total number of CD8 T cells compared to DMSO control” value (CD8 T cells) is reported as “increase in total CD8”. The “fraction of CD8 T cells identified as naïve” value (CD8 T cells; DMSO 26.6%) was 16.2%, the “fraction of CD8 T cells identified as early-effector” value (CD8 T cells; DMSO 27.8%) was 41.3% and the “fraction of CD8 T cells identified as effector” value (CD8 T cells; DMSO 45.6%) was 42.5%.
